Reference: PubChem BioAssay (NCI)
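Where inhibition never reached the appropriate level, the endpoint shown equals the highest concentration tested. Otherwise, values were interpolated linearly from a five-concentration, 48-hour dose response in 96-well plates. TGI: total growth inhibition.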

Legend:
Test in all cases: NCI tumour cell line growth inhibition, 48 h
DMS 114 small cell lung = test system: DMS 114 small cell lung
LXFL 529 NSCLC = test system: LXFL 529 NSCLC
XF 498 CNS = test system: XF 498 CNS
M19-MEL melanoma = test system: M19-MEL melanoma
DMS 273 small cell lung = test system: DMS 273 small cell lung
SNB-78 CNS = test system: SNB-78 CNS
DLD-1 colon = test system: DLD-1 colon
HOP-18 NSCLC = test system: HOP-18 NSCLC
P388 leukemia = test system: P388 leukemia
P388/ADR leukemia = test system: P388/ADR leukemia
SN12K1 renal = test system: SN12K1 renal

Row | SMILES | TGI (DMS 114 small cell lung) | TGI (LXFL 529 NSCLC) | TGI (XF 498 CNS) | TGI (M19-MEL melanoma) | TGI (DMS 273 small cell lung) | TGI (SNB-78 CNS) | TGI (DLD-1 colon) | TGI (HOP-18 NSCLC) | TGI (P388 leukemia) | TGI (P388/ADR leukemia) | TGI (SN12K1 renal)
1 | CS(=O)(=O)c1nc(N)nc2nc[nH]c12 | > 100 µM | > 100 µM | > 100 µM | > 100 µM | > 100 µM | > 100 µM | > 100 µM | > 100 µM | – | – | –
2 | N#CN=Nc1cc(Cl)c(N=NC#N)cc1Cl | > 100 µM | > 100 µM | > 100 µM | > 100 µM | > 100 µM | > 100 µM | > 100 µM | – | – | – | –
3 | CCCCOC(=O)CN1C(=O)c2ccccc2C1=O | – | – | > 100 µM | > 100 µM | > 100 µM | > 100 µM | > 100 µM | – | – | – | –
4 | CC1(C)S[C@@H]2[C@H](NC(=O)CCC[C@@H](N)C(=O)O)C(=O)N2[C@H]1C(=O)O | – | – | > 42 µM | > 50 µM | > 50 µM | > 50 µM | > 50 µM | > 50 µM | > 50 µM | > 50 µM | > 50 µM
5 | CN(C)CCOc1cc2c(c3ccccc13)-c1ccccc1C2=O | 2.65 µM | – | 3.28 µM | 2.89 µM | 1.85 µM | 23 µM | 4.01 µM | 8.58 µM | 2.7 µM | 1.95 µM | 2.04 µM
6 | O=C(O)C(Cc1cccs1)NC(=O)C(F)(F)F (configuration not stated) | > 100 µM | – | – | > 100 µM | > 100 µM | – | > 100 µM | > 100 µM | > 100 µM | > 100 µM | > 100 µM
